Assay results as given in article PMC9569420 (Communications Biology, 2022).

Key:
CDK3/cyclin E2 = target: T1, CDK3/cyclin E2 (Homo sapiens, UniProt Q00526); assay: HotSpot kinase assay; assay type: biochemical; details: read-out: % Enzyme Activity (relative to DMSO controls)
T1 construct: purchased Reaction Biology Corporation

CDK6/cyclin D3 = target: T2, CDK6/cyclin D3 (Homo sapiens, UniProt Q00534); assay: HotSpot kinase assay; assay type: biochemical; details: read-out: % Enzyme Activity (relative to DMSO controls)
T2 construct: purchased Reaction Biology Corporation

P38a/MAPK14 = target: T3, P38a/MAPK14 (Homo sapiens, UniProt Q16539); assay: HotSpot kinase assay; assay type: biochemical; details: read-out: % Enzyme Activity (relative to DMSO controls)
T3 construct: purchased Reaction Biology Corporation
T3 sequence (Q16539 whole entry): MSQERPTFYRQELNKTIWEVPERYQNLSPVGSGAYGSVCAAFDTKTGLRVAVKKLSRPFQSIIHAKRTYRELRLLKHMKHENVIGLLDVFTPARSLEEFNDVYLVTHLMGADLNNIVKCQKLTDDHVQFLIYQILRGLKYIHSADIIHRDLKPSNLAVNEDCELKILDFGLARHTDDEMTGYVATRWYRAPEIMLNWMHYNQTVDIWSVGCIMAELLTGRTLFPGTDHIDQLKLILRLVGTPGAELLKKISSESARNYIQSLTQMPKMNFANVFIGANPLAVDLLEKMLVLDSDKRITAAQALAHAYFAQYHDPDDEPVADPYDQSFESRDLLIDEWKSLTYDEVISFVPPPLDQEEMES

SRMS = target: T4, SRMS (Homo sapiens, UniProt Q9H3Y6); assay: HotSpot kinase assay; assay type: biochemical; details: read-out: % Enzyme Activity (relative to DMSO controls)
T4 construct: purchased Reaction Biology Corporation

NIM1 = target: T5, NIM1 (Homo sapiens, UniProt Q8IY84); assay: HotSpot kinase assay; assay type: biochemical; details: read-out: % Enzyme Activity (relative to DMSO controls)
T5 construct: purchased Reaction Biology Corporation

mTOR/FRAP1 = target: T6, mTOR/FRAP1 (Homo sapiens, UniProt P42345); assay: HotSpot kinase assay; assay type: biochemical; details: read-out: % Enzyme Activity (relative to DMSO controls)
T6 construct: purchased Reaction Biology Corporation

MAK = target: T7, MAK (Homo sapiens, UniProt P20794); assay: HotSpot kinase assay; assay type: biochemical; details: read-out: % Enzyme Activity (relative to DMSO controls)
T7 construct: purchased Reaction Biology Corporation

CDK1/cyclin E = target: T8, CDK1/cyclin E (Homo sapiens, UniProt P06493); assay: HotSpot kinase assay; assay type: biochemical; details: read-out: % Enzyme Activity (relative to DMSO controls)
T8 construct: purchased Reaction Biology Corporation

PIM2 = target: T9, PIM2 (Homo sapiens, UniProt Q9P1W9); assay: HotSpot kinase assay; assay type: biochemical; details: read-out: % Enzyme Activity (relative to DMSO controls)
T9 construct: purchased Reaction Biology Corporation

CAMK1a = target: T10, CAMK1a (Homo sapiens, UniProt Q14012); assay: HotSpot kinase assay; assay type: biochemical; details: read-out: % Enzyme Activity (relative to DMSO controls)
T10 construct: purchased Reaction Biology Corporation

HIPK3 = target: T11, HIPK3 (Homo sapiens, UniProt Q9H422); assay: HotSpot kinase assay; assay type: biochemical; details: read-out: % Enzyme Activity (relative to DMSO controls)
T11 construct: purchased Reaction Biology Corporation

BRSK1 = target: T12, BRSK1 (Homo sapiens, UniProt Q8TDC3); assay: HotSpot kinase assay; assay type: biochemical; details: read-out: % Enzyme Activity (relative to DMSO controls)
T12 construct: purchased Reaction Biology Corporation

FYN = target: T13, FYN (Homo sapiens, UniProt P06241); assay: HotSpot kinase assay; assay type: biochemical; details: read-out: % Enzyme Activity (relative to DMSO controls)
T13 construct: purchased Reaction Biology Corporation
T13 sequence (P06241 whole entry): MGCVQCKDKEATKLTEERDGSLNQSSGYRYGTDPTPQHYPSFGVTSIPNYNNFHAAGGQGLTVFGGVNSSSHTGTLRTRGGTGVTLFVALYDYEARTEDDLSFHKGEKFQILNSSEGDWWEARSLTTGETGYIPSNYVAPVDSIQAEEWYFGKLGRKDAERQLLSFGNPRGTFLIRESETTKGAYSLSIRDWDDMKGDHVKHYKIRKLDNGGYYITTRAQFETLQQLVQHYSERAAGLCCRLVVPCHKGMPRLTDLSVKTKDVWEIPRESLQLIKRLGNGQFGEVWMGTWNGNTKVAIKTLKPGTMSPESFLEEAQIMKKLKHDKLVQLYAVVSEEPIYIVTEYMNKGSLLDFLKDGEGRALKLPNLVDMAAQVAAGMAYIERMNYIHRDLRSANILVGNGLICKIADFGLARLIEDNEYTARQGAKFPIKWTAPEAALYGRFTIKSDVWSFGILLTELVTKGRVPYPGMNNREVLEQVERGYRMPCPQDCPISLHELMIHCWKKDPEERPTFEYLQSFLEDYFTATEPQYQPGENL

PRKX = target: T14, PRKX (Homo sapiens, UniProt P51817); assay: HotSpot kinase assay; assay type: biochemical; details: read-out: % Enzyme Activity (relative to DMSO controls)
T14 construct: purchased Reaction Biology Corporation

SYK = target: T15, SYK (Homo sapiens, UniProt P43405); assay: HotSpot kinase assay; assay type: biochemical; details: read-out: % Enzyme Activity (relative to DMSO controls)
T15 construct: purchased Reaction Biology Corporation

MST3/STK24 = target: T16, MST3/STK24 (Homo sapiens, UniProt Q9Y6E0); assay: HotSpot kinase assay; assay type: biochemical; details: read-out: % Enzyme Activity (relative to DMSO controls)
T16 construct: purchased Reaction Biology Corporation

MELK = target: T17, MELK (Homo sapiens, UniProt Q14680); assay: HotSpot kinase assay; assay type: biochemical; details: read-out: % Enzyme Activity (relative to DMSO controls)
T17 construct: purchased Reaction Biology Corporation

KHS/MAP4K5 = target: T18, KHS/MAP4K5 (Homo sapiens, UniProt Q9Y4K4); assay: HotSpot kinase assay; assay type: biochemical; details: read-out: % Enzyme Activity (relative to DMSO controls)
T18 construct: purchased Reaction Biology Corporation

TEC = target: T19, TEC (Homo sapiens, UniProt P42680); assay: HotSpot kinase assay; assay type: biochemical; details: read-out: % Enzyme Activity (relative to DMSO controls)
T19 construct: purchased Reaction Biology Corporation

CK1epsilon = target: T20, CK1epsilon (Homo sapiens, UniProt P49674); assay: HotSpot kinase assay; assay type: biochemical; details: read-out: % Enzyme Activity (relative to DMSO controls)
T20 construct: purchased Reaction Biology Corporation

DDR2 = target: T21, DDR2 (Homo sapiens, UniProt Q16832); assay: HotSpot kinase assay; assay type: biochemical; details: read-out: % Enzyme Activity (relative to DMSO controls)
T21 construct: purchased Reaction Biology Corporation
T21 sequence (Q16832 22-855): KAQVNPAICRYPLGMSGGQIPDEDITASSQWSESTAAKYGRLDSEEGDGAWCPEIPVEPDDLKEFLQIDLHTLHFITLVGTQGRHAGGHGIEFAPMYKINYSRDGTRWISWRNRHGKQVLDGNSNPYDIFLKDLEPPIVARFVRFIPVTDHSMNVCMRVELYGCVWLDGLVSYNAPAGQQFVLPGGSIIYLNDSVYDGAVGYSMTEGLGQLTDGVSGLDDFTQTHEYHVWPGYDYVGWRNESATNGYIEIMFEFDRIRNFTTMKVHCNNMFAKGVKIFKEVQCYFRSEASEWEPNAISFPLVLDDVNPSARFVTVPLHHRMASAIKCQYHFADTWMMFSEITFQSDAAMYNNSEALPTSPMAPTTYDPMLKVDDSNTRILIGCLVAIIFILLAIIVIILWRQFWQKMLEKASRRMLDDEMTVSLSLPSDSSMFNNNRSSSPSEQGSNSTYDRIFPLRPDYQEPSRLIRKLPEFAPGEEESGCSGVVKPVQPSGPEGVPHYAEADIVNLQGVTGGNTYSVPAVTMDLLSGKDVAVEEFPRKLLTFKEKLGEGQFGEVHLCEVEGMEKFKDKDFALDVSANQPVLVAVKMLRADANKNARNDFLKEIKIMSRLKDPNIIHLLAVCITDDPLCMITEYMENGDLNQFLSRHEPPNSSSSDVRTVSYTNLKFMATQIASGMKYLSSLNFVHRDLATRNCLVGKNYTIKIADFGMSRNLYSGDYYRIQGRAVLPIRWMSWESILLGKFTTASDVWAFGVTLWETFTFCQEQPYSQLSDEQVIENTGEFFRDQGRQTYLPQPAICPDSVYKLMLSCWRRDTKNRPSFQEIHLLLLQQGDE

CDK4/cyclin D3 = target: T22, CDK4/cyclin D3 (Homo sapiens, UniProt P11802); assay: HotSpot kinase assay; assay type: biochemical; details: read-out: % Enzyme Activity (relative to DMSO controls)
T22 construct: purchased Reaction Biology Corporation

DCAMKL1 = target: T23, DCAMKL1 (Homo sapiens, UniProt O15075); assay: HotSpot kinase assay; assay type: biochemical; details: read-out: % Enzyme Activity (relative to DMSO controls)
T23 construct: purchased Reaction Biology Corporation

IGF1R = target: T24, IGF1R (Homo sapiens, UniProt P08069); assay: HotSpot kinase assay; assay type: biochemical; details: read-out: % Enzyme Activity (relative to DMSO controls)
T24 construct: purchased Reaction Biology Corporation

PAK1 = target: T25, PAK1 (Homo sapiens, UniProt Q13153); assay: HotSpot kinase assay; assay type: biochemical; details: read-out: % Enzyme Activity (relative to DMSO controls)
T25 construct: purchased Reaction Biology Corporation
T25 sequence (Q13153 whole entry): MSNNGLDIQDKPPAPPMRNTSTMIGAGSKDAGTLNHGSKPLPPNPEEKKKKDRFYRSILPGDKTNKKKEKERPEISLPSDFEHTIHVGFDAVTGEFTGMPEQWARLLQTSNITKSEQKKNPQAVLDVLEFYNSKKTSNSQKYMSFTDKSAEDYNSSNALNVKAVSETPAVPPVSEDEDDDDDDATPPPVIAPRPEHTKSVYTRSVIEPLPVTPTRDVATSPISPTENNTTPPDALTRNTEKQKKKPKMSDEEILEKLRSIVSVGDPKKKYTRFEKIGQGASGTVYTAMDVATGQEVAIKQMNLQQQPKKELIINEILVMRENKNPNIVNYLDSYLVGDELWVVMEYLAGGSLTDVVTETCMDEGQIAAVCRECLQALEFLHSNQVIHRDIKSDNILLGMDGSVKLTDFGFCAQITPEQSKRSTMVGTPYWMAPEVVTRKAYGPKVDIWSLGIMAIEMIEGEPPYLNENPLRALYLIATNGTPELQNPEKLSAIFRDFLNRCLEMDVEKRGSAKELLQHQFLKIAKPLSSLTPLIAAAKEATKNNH

[1] = system: Akt (pAkt T308) in HaCat cells; assay: Akt phosphorylation in response to insulin (confocal); assay type: cell-based, human; details: insulin 10 μM, CIMSS 10 or 100 µM
FGFR2 = target: T26, FGFR2 (Homo sapiens, UniProt P21802); assay: HotSpot kinase assay; assay type: biochemical; details: read-out: % Enzyme Activity (relative to DMSO controls)
T26 construct: purchased Reaction Biology Corporation
T26 sequence (P21802 22-821): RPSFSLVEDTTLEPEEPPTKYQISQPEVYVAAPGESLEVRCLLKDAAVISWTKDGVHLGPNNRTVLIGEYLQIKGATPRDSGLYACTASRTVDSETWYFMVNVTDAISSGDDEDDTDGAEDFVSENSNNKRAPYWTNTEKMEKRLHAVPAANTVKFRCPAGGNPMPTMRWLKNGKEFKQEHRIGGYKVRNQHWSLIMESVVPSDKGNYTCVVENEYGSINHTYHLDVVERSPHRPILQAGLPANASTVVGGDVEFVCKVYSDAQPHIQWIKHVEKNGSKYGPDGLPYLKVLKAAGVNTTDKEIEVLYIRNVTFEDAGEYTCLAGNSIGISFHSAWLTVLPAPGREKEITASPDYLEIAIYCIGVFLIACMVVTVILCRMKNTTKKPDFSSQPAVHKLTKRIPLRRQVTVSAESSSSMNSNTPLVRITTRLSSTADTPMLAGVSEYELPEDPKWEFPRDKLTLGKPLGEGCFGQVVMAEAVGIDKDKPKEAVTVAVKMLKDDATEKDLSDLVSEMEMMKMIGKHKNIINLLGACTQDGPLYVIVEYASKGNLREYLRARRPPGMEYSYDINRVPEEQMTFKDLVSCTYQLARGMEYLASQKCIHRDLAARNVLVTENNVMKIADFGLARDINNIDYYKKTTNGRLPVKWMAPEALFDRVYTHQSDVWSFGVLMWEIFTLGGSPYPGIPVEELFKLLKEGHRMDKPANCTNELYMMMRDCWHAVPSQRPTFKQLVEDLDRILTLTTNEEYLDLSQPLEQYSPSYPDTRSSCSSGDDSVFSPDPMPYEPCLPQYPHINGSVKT

ZAP70 = target: T27, ZAP70 (Homo sapiens, UniProt P43403); assay: HotSpot kinase assay; assay type: biochemical; details: read-out: % Enzyme Activity (relative to DMSO controls)
T27 construct: purchased Reaction Biology Corporation
T27 sequence (P43403 whole entry): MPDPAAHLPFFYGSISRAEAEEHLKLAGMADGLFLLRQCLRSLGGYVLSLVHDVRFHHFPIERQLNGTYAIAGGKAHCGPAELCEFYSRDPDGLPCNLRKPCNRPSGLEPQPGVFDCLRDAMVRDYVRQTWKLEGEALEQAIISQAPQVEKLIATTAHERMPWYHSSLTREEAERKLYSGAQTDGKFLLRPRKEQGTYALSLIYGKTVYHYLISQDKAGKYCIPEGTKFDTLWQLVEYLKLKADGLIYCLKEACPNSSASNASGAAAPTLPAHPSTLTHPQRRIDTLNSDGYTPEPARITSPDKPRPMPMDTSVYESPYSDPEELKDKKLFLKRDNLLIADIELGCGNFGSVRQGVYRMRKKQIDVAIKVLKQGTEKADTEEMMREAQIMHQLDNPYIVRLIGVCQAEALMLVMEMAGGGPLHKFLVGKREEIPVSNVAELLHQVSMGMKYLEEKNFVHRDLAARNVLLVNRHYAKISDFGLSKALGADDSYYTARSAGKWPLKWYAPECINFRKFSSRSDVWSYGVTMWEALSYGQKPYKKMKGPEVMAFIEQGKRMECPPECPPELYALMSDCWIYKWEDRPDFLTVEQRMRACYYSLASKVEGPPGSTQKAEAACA

RAF1 = target: T28, RAF1 (Homo sapiens, UniProt P04049); assay: HotSpot kinase assay; assay type: biochemical; details: read-out: % Enzyme Activity (relative to DMSO controls)
T28 construct: purchased Reaction Biology Corporation

PKG1a = target: T29, PKG1a (Homo sapiens, UniProt Q13976); assay: HotSpot kinase assay; assay type: biochemical; details: read-out: % Enzyme Activity (relative to DMSO controls)
T29 construct: purchased Reaction Biology Corporation

TESK2 = target: T30, TESK2 (Homo sapiens, UniProt Q96S53); assay: HotSpot kinase assay; assay type: biochemical; details: read-out: % Enzyme Activity (relative to DMSO controls)
T30 construct: purchased Reaction Biology Corporation

CLK1 = target: T31, CLK1 (Homo sapiens, UniProt P49759); assay: HotSpot kinase assay; assay type: biochemical; details: read-out: % Enzyme Activity (relative to DMSO controls)
T31 construct: purchased Reaction Biology Corporation

STK16 = target: T32, STK16 (Homo sapiens, UniProt O75716); assay: HotSpot kinase assay; assay type: biochemical; details: read-out: % Enzyme Activity (relative to DMSO controls)
T32 construct: purchased Reaction Biology Corporation

ERBB4/HER4 = target: T33, ERBB4/HER4 (Homo sapiens, UniProt Q15303); assay: HotSpot kinase assay; assay type: biochemical; details: read-out: % Enzyme Activity (relative to DMSO controls)
T33 construct: purchased Reaction Biology Corporation
T33 sequence (Q15303 26-1308): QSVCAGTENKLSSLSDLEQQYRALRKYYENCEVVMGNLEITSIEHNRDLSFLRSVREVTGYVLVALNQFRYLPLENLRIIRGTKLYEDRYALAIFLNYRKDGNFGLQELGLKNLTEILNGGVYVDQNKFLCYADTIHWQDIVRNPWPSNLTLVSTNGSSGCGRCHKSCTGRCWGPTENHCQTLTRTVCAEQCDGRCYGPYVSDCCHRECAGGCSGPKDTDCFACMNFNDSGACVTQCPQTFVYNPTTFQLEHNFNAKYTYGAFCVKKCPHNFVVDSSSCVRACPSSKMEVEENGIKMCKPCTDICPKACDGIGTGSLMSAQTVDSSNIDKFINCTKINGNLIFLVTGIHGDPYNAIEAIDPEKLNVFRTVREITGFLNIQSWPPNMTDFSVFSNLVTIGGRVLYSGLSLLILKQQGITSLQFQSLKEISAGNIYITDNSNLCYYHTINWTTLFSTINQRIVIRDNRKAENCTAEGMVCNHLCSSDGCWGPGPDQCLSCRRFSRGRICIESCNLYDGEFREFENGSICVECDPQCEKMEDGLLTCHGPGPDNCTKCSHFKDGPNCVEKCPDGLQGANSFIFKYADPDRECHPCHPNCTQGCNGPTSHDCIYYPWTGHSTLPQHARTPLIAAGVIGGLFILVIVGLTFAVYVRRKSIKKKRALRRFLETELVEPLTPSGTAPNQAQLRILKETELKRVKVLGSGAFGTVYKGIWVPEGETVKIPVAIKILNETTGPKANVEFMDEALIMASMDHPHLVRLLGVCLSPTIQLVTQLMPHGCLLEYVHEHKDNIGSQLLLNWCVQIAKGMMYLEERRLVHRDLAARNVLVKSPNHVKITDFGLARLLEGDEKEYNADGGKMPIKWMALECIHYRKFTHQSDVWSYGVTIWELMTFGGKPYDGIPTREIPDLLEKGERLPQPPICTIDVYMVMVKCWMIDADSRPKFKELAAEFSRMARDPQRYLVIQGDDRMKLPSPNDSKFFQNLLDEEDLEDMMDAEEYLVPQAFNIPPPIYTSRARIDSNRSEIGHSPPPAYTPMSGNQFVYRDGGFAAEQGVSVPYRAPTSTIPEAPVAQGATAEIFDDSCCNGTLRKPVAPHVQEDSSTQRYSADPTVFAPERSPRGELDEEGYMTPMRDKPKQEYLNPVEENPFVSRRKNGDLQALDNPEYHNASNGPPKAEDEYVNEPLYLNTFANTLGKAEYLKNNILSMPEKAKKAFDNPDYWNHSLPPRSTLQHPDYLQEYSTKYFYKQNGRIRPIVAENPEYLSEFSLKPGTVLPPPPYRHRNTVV

HSV-1 K26GFP = assay: capsid entry, confocal imaging, HaCat cells; assay type: cell-based; details: 1 h post-temperature shift; CIMSS 10 μM, antibody 2 μg/ml
Description: To quantify viral entry, cells were synchronously infected by allowing virus to bind to cells at 4°C for 4 h, washed, and then transferred to 37 °C. CIMSS or control DMSO was added at the time of temperature shift. At indicated times post-temperature shift, the cells were treated with a low pH buffer to inactivate virus that had not penetrated, washed, overlaid with medium containing methyl cellulose and viral plaques were counted at 48 h. Entry was also assessed by immunoblotting nuclear extracts for VP16. […] Nuclear extracts were prepared after 1 h and analyzed by western blot with antibodies targeting VP16, histone H1 and golgin-97[5]. The non-nuclear fraction was also probed for golgin-97 as a positive control. […] After 1 or 4 h of incubation, the cells were fixed. Plasma membranes were stained using Image -IT^TM LIVE Plasma Membrane kit and nuclei were stained with DAPI (Thermo Fisher Scientific, Cat 134406). The percentage of GFP + nuclei was determined by counting ~200 cells over 3–4 fields. Images were obtained with Leica SP8 microscope (objective 63 × 1.4); xz images were captured with optical slice 0.6 µm, 25–30 slices per image.

FRK/PTK5 = target: T34, FRK/PTK5 (Homo sapiens, UniProt P42685); assay: HotSpot kinase assay; assay type: biochemical; details: read-out: % Enzyme Activity (relative to DMSO controls)
T34 construct: purchased Reaction Biology Corporation

MEKK2 = target: T35, MEKK2 (Homo sapiens, UniProt Q9Y2U5); assay: HotSpot kinase assay; assay type: biochemical; details: read-out: % Enzyme Activity (relative to DMSO controls)
T35 construct: purchased Reaction Biology Corporation

`CO[C@@H]1[C@H](N(C)C(=O)CCC(=O)NCc2cn(CCCS(=O)(=O)O)nn2)C[C@H]2O[C@]1(C)n1c3ccccc3c3c4c(c5c6ccccc6n2c5c31)C(=O)NC4` [CIMSS] gave a remaining activity at 10 µM (CDK3/cyclin E2) of 22.3%, a remaining activity at 10 µM (CDK6/cyclin D3) of 56.8% and a remaining activity at 10 µM (P38a/MAPK14) of 102%. The remaining activity at 10 µM (SRMS) was 91%, the remaining activity at 10 µM (NIM1) was 46.6% and the remaining activity at 10 µM (mTOR/FRAP1) was 112%. For the same molecule, the remaining activity at 10 µM (MAK) was 13.2%, the remaining activity at 10 µM (CDK1/cyclin E) was 18% and the remaining activity at 10 µM (PIM2) was 21.3%. The remaining activity at 10 µM (CAMK1a) was 28.7%, the remaining activity at 10 µM (HIPK3) was 14.5% and the remaining activity at 10 µM (BRSK1) was 1.55%. For the same molecule, the remaining activity at 10 µM (FYN) was 2.59%, the remaining activity at 10 µM (PRKX) was 9.56% and the remaining activity at 10 µM (SYK) was 0.87%. It also gave a remaining activity at 10 µM (MST3/STK24) of 16.6%, a remaining activity at 10 µM (MELK) of 1.43% and a remaining activity at 10 µM (KHS/MAP4K5) of 5.19%. The remaining activity at 10 µM (TEC) was 19.9%, the remaining activity at 10 µM (CK1epsilon) was 38.8% and the remaining activity at 10 µM (DDR2) was 1.67%. The remaining activity at 10 µM (CDK4/cyclin D3) was 85.6%, the remaining activity at 10 µM (DCAMKL1) was 83.7% and the remaining activity at 10 µM (IGF1R) was 6.72%. For the same molecule, the remaining activity at 10 µM (PAK1) was 8.08%, the “block of Akt phosphorylation in response to insulin” value [1] was “did not block” and the remaining activity at 10 µM (FGFR2) was 2.58%. The remaining activity at 10 µM (ZAP70) was 13%, the remaining activity at 10 µM (RAF1) was 111% and the remaining activity at 10 µM (PKG1a) was 7.02%. For the same molecule, the remaining activity at 10 µM (TESK2) was 91.2%, the remaining activity at 10 µM (CLK1) was 4.05% and the remaining activity at 10 µM (STK16) was 10.2%. For the same molecule, the remaining activity at 10 µM (ERBB4/HER4) was 25%, the “percentage of GFP + cells” value (HSV-1 K26GFP) was “significantly decreased” and the remaining activity at 10 µM (FRK/PTK5) was 4.49%. For the same molecule, the remaining activity at 10 µM (MEKK2) was 8.32%.
